Common to all, as to assay type: cell-based
For one assay, the system named is Pyricularia oryzae. Briefly: microbe, parasite or virus in culture. The following applies: 168 h, read-out: % control compared to the untreated check (radial growth).
In a further assay the test system is Rhizoctonia solani. Briefly: Rhizoctonia solani (rice sheath blight/potato black scurf) in vitro test, radial growth on Potato Dextrose Agar. The following applies: 168 h, 300 ppm, seven days, 25° C., read-out: % control compared to the untreated check (radial growth).
A further assay deals with Botrytis cinerea. Put plainly: Botrytis cinerea (gray mold) in vitro test, radial growth on Potato Dextrose Agar. The following applies: 168 h, 300 ppm, seven days, 22° C., read-out: % (control) compared to the untreated check (radial growth).
Another assay relates to Alternaria solani. Briefly: Alternaria solani (early blight of tomato/potato) in vitro test, radial growth on Potato Dextrose Agar. The following applies: 168 h, 300 ppm, seven days, 25° C., read-out: % control compared to the untreated check (radial growth).
The subject of another assay is Colletotrichum capsici. Put plainly: Colletotrichum capsici (anthracnose) in vitro test, radial growth on Potato Dextrose Agar. The following applies: Colletotrichum truncatum, 168 h; 300 ppm; seven days, 25° C.; read-out: % control compared to the untreated check (radial growth).
For the next assay, the system named is Septoria lycopersici. Put plainly: Septoria lycopersici (leaf spot of tomato) in vitro test, radial growth on Potato Dextrose Agar. As to conditions: 168 h, seven days, 25° C., read-out: % control compared to the untreated check (radial growth).
For another assay, the system named is Fusarium culmorum. Put plainly: Fusarium culmorum (foot rot of cereals) in vitro test, radial growth on Potato Dextrose Agar. As to conditions: Fusarium culmorum, 168 h, read-out: % control compared to the untreated check (radial growth).

Turning to `CCN(C)C=Nc1cc(C)c(Cc2ccccc2F)cc1F` [Compound 214, N-ethyl-N′-(2-fluoro-4-(2-fluorobenzyl)-5-methylphenyl)-N-methylformimidamide], the inhibition of growth at 300 ppm with Pyricularia oryzae was > 75%; in the assay on Rhizoctonia solani, > 80%; in the assay with Botrytis cinerea it was > 80%; in the assay with Alternaria solani, > 75%; in the assay on Colletotrichum capsici, > 80%; with Septoria lycopersici, > 70%. Also, the inhibition of growth at 300 ppm with Fusarium culmorum was 75%.
On to `CCN(C)C=Nc1cc(C)c(Cc2cccc(C#N)c2)cc1Cl` [Compound 72, N′-(2-chloro-4-(3-cyanobenzyl)-5-methylphenyl)-N-ethyl-N-methylformimidamide], for which the inhibition of growth at 300 ppm was > 75% with Pyricularia oryzae; > 80% in the assay with Rhizoctonia solani; > 75% in the assay with Alternaria solani; > 80% with Colletotrichum capsici; > 70% in the assay with Septoria lycopersici; 75% in the assay with Fusarium culmorum.
As for `CCN(C)C=Nc1cc(C)c(/C(=N\C)c2ccccc2C)cc1C` [Compound 215, N′-(2,5-dimethyl-4-((Z)-(methylimino)(o-tolyl)methyl)phenyl)-N-ethyl-N-methylformimidamide], the inhibition of growth at 300 ppm was > 75% in the assay on Pyricularia oryzae; > 80% in the assay on Rhizoctonia solani; > 75% with Alternaria solani; > 80% in the assay on Colletotrichum capsici; > 70% in the assay with Septoria lycopersici; 75% in the assay on Fusarium culmorum.
`CCN(C)C=Nc1cc(Cl)c(Cc2cccc(C)c2)cc1C` [Compound 260, N′-(5-chloro-2-methyl-4-(3-methylbenzyl)phenyl)-N-ethyl-N-methylformimidamide]: the inhibition of growth at 300 ppm is > 75% in the assay with Pyricularia oryzae; > 80% in the assay with Botrytis cinerea; > 75% with Alternaria solani; > 80% with Colletotrichum capsici; > 70% in the assay on Septoria lycopersici; 75% in the assay with Fusarium culmorum.
Consider `CCN(C)C=Nc1cc(C)c(Cc2cccc(N(C)C)c2)cc1C` [Compound 111, N′-(4-(3-(dimethylamino)benzyl)-2,5-dimethylphenyl)-N-ethyl-N-methylformimidamide], for which the inhibition of growth at 300 ppm was > 75% in the assay on Pyricularia oryzae; > 80% in the assay with Rhizoctonia solani; > 75% in the assay on Alternaria solani; > 80% in the assay with Colletotrichum capsici; > 70% in the assay with Septoria lycopersici; 75% in the assay on Fusarium culmorum.
`Cc1cc(N=CN2CCOCC2)c(C)cc1Cc1ccccc1F` [Compound 55, N-(4-(2-fluorobenzyl)-2,5-dimethylphenyl)-1-morpholinomethanimine]: the inhibition of growth at 300 ppm in the assay with Pyricularia oryzae is > 75%; in the assay with Rhizoctonia solani it was > 80%; in the assay on Botrytis cinerea it was > 80%; with Alternaria solani, > 75%; in the assay on Septoria lycopersici, > 70%; with Fusarium culmorum, 75%.
With `CCN(C)C=Nc1cc(C#N)c(Cc2ccc(C)cc2)cc1C` [Compound 252, N′-(5-cyano-2-methyl-4-(4-methylbenzyl)phenyl)-N-ethyl-N-methylformimidamide], the inhibition of growth at 300 ppm in the assay on Pyricularia oryzae was > 75%; with Rhizoctonia solani it was > 80%; in the assay with Botrytis cinerea, > 80%; in the assay with Alternaria solani, > 75%; with Septoria lycopersici, > 70%; in the assay on Fusarium culmorum, 75%.
For `CCN(C)C=Nc1cc(C)c(Cc2ccc(C(F)(F)F)c(F)c2)cc1Cl` [Compound 137, N′-(2-chloro-4-(3-fluoro-4-(trifluoromethyl)benzyl)-5-methylphenyl)-N-ethyl-N-methylformimidamide], the inhibition of growth at 300 ppm was > 75% in the assay on Pyricularia oryzae; > 80% in the assay with Rhizoctonia solani; > 80% in the assay on Botrytis cinerea; > 75% in the assay on Alternaria solani; > 80% with Colletotrichum capsici; 75% with Fusarium culmorum.
As for `CCN(C)C=Nc1cc(C)c(Cc2cc(C(F)(F)F)ccc2C)cc1C` [Compound 53, N′-(2,5-dimethyl-4-(2-methyl-5-(trifluoromethyl)benzyl)phenyl)-N-ethyl-N-methylformimidamide], the inhibition of growth at 300 ppm in the assay on Botrytis cinerea is > 80%; in the assay on Alternaria solani it was > 75%; with Colletotrichum capsici it was > 80%; with Septoria lycopersici, > 70%; in the assay on Fusarium culmorum, 75%.
Turning to `CCN(C)C=Nc1cc(C)c(Cc2ccc(F)c(C)c2)cc1Cl` [Compound 119, N′-(2-chloro-4-(4-fluoro-3-methylbenzyl)-5-methylphenyl)-N-ethyl-N-methylformimidamide], the inhibition of growth at 300 ppm is > 75% in the assay with Pyricularia oryzae; > 80% in the assay on Rhizoctonia solani; > 80% in the assay on Botrytis cinerea; > 75% with Alternaria solani; > 80% in the assay with Colletotrichum capsici; 75% in the assay on Fusarium culmorum.
With `Cc1cc(N=CN2CCOCC2)c(C)cc1Cc1ccc(F)cc1` [Compound 56, N-(4-(4-fluorobenzyl)-2,5-dimethylphenyl)-1-morpholinomethanimine], the inhibition of growth at 300 ppm was > 75% with Pyricularia oryzae; > 80% with Rhizoctonia solani; > 80% with Botrytis cinerea; > 75% in the assay with Alternaria solani; > 70% in the assay on Septoria lycopersici; 75% in the assay on Fusarium culmorum.
Take `CCN(C)C=Nc1cc(C)c(Cc2cccc(Cl)c2)cc1Cl` [Compound 78, N′-(2-chloro-4-(3-chlorobenzyl)-5-methylphenyl)-N-ethyl-N-methylformimidamide]: the inhibition of growth at 300 ppm was > 75% in the assay on Pyricularia oryzae; > 80% in the assay with Rhizoctonia solani; > 80% in the assay on Botrytis cinerea; > 75% in the assay with Alternaria solani; > 80% in the assay with Colletotrichum capsici; 75% with Fusarium culmorum.
In the case of `CCN(C)C=Nc1cc(C)c(Cc2c(Cl)cccc2Cl)cc1C` [Compound 153, N′-(4-(2,6-dichlorobenzyl)-2,5-dimethylphenyl)-N-ethyl-N-methylformimidamide], the inhibition of growth at 300 ppm in the assay with Pyricularia oryzae is > 75%; in the assay with Rhizoctonia solani, > 80%; with Botrytis cinerea, > 80%; in the assay with Alternaria solani, > 75%; with Colletotrichum capsici, > 80%; with Fusarium culmorum, 75%.
On to `CCN(C)C=Nc1cc(C)c(Cc2c(F)cccc2Cl)cc1C` [Compound 155, N′-(4-(2-chloro-6-fluorobenzyl)-2,5-dimethylphenyl)-N-ethyl-N-methylformimidamide], for which the inhibition of growth at 300 ppm in the assay on Pyricularia oryzae is > 75%; in the assay on Rhizoctonia solani, > 80%; with Botrytis cinerea, > 80%; in the assay with Alternaria solani it was > 75%; in the assay with Colletotrichum capsici, > 80%; in the assay on Fusarium culmorum, 75%.
Turning to `CCN(C)C=Nc1cc(Cl)c(C(C)(C(=O)N(C)C)c2cccc(F)c2)cc1C` (stereo not drawn) [Compound 239, 2-(2-chloro-4-(((ethyl(methyl)amino)methylene)amino)-5-methylphenyl)-2-(3-fluorophenyl)-N,N-dimethylpropanamide], the inhibition of growth at 300 ppm in the assay with Pyricularia oryzae was > 75%; in the assay with Rhizoctonia solani, > 80%; in the assay with Botrytis cinerea it was > 80%; in the assay on Alternaria solani, > 75%; in the assay on Colletotrichum capsici it was > 80%; in the assay with Fusarium culmorum, 75%.
In the case of `CCN(C)C=Nc1ccc(Cc2ccccc2C)c2ccccc12` [Compound 271, N-ethyl-N-methyl-N′-(4-(2-methylbenzyl)naphthalen-1-yl)formimidamide], the inhibition of growth at 300 ppm in the assay on Pyricularia oryzae is > 75%; with Rhizoctonia solani it was > 80%; with Botrytis cinerea it was > 80%; in the assay on Alternaria solani it was > 75%; with Septoria lycopersici it was > 70%; in the assay with Fusarium culmorum it was 75%.
For `CCN(C)C=Nc1cc(C)c(Cc2cccc(OC(F)(F)F)c2)cc1C1CC1` [Compound 224, N′-(2-cyclopropyl-5-methyl-4-(3-(trifluoromethoxy)benzyl)phenyl)-N-ethyl-N-methylformimidamide], the inhibition of growth at 300 ppm is > 75% in the assay with Pyricularia oryzae; > 80% in the assay with Rhizoctonia solani; > 80% in the assay with Botrytis cinerea; > 75% in the assay on Alternaria solani; > 70% in the assay on Septoria lycopersici; 75% with Fusarium culmorum.
As to `CCN(C)C=Nc1cc(C)c(Cc2ccc(Cl)cc2)cc1Cl` [Compound 79, N′-(2-chloro-4-(4-chlorobenzyl)-5-methylphenyl)-N-ethyl-N-methylformimidamide], the inhibition of growth at 300 ppm with Pyricularia oryzae is > 75%; in the assay with Rhizoctonia solani, > 80%; in the assay on Botrytis cinerea, > 80%; in the assay with Alternaria solani, > 75%; in the assay with Colletotrichum capsici it was > 80%; in the assay with Fusarium culmorum, 75%.
Regarding `CCN(C)C=Nc1cc(C#N)c(Cc2cccc(F)c2)cc1C` [Compound 250, N′-(5-cyano-4-(3-fluorobenzyl)-2-methylphenyl)-N-ethyl-N-methylformimidamide], the inhibition of growth at 300 ppm in the assay on Pyricularia oryzae is > 75%; in the assay with Rhizoctonia solani, > 80%; in the assay with Botrytis cinerea it was > 80%; with Alternaria solani, > 75%; in the assay on Septoria lycopersici, > 70%; in the assay on Fusarium culmorum, 75%.
